Measured values reported in PubChem BioAssay (NCI).
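Step 1: Grow cells in 96-well plates. Step 2: Expose to compound for 48 hours at 5 concentrations. Step 3: Interpolate endpoints linearly; if unreached, use highest concentration. GI50 is the concentration that inhibits growth by half. TGI is the concentration that stops growth completely.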

Experiments:
Assay in all cases: inhibition of tumour cell growth, NCI panel, 48 h
SF-539 CNS = tested on: SF-539 CNS
A549 NSCLC = tested on: A549 NSCLC
NCI-H522 lung = tested on: NCI-H522 lung
NCI-H23 lung = tested on: NCI-H23 lung
UACC-62 melanoma = tested on: UACC-62 melanoma
SK-OV-3 ovarian = tested on: SK-OV-3 ovarian
SW-620 colon = tested on: SW-620 colon
DU-145 prostate = tested on: DU-145 prostate
MCF7 breast = tested on: MCF7 breast
HT29 colon = tested on: HT29 colon

| Structure (SMILES) | GI50 (SF-539 CNS) [µM] | TGI (SF-539 CNS) [µM] | GI50 (A549 NSCLC) [µM] | TGI (A549 NSCLC) [µM] | GI50 (NCI-H522 lung) [µM] | TGI (NCI-H522 lung) [µM] | GI50 (NCI-H23 lung) [µM] | TGI (NCI-H23 lung) [µM] | GI50 (UACC-62 melanoma) [µM] | TGI (UACC-62 melanoma) [µM] | GI50 (SK-OV-3 ovarian) [µM] | TGI (SK-OV-3 ovarian) [µM] | GI50 (SW-620 colon) [µM] | TGI (SW-620 colon) [µM] | GI50 (DU-145 prostate) [µM] | TGI (DU-145 prostate) [µM] | GI50 (MCF7 breast) [µM] | TGI (MCF7 breast) [µM] | GI50 (HT29 colon) [µM] | TGI (HT29 colon) [µM] |
| --- | --- | --- | --- | --- | --- | --- | --- | --- | --- | --- | --- | --- | --- | --- | --- | --- | --- | --- | --- | --- |
| NC(=O)c1c(NC(=O)c2ccc(C(F)(F)F)cc2Cl)sc2c1CCC(=O)C2 | 0.28 | 1.04 | 2.69 | 14.4 | 0.186 | 0.844 | 0.288 | 1.68 | 0.274 | 1.21 | 2.47 | 7.56 | 0.176 | 1.36 | 3.83 | 25 | 0.279 | 4.08 | 0.346 | 1.67 |
| O=C(O)CC(CC(=O)O)n1cccc1 |  | > 100 |  | > 100 |  | > 100 |  | > 100 |  | > 100 |  | > 100 |  | > 100 |  | > 100 |  | > 100 |  | > 100 |
| CN(C)Cc1c[nH]c2nc[nH]c(=O)c12 |  | 48.9 |  | > 100 |  | > 100 |  | > 100 |  | 39.7 |  | > 100 |  | > 100 |  | 64.8 |  | 67.7 |  | > 100 |
| CN(COC(=O)C(C)(C)C)c1nc(N(C)COC(=O)C(C)(C)C)nc(N(C)COC(=O)C(C)(C)C)n1 |  | > 100 |  | > 100 |  | > 100 |  | > 100 |  |  |  | > 100 |  | 82.2 |  | > 100 |  | > 100 |  | > 100 |
| COc1ccc(/C(=N/O)c2cc(F)c(F)c(OC)c2F)cc1O | 0.427 | 5.27 | 1.06 | > 100 | 0.259 | 3.3 | 1.9 | > 100 |  |  | 0.523 | > 100 | 0.435 | > 100 | 1.88 | > 100 | 0.329 | > 100 | 3.6 | 65.4 |
| O=C1C=CC(=O)N1c1ccc2ccccc2c1 | 17.7 | 33.9 | 20.3 | 43.2 | 1.74 | 3.42 | 17.1 | 37.2 | 16.1 | 29.8 | 27.4 | 78.5 | 1.79 | 3.62 | 12.3 | 25.6 | 16.6 | 41.4 | 4.94 | 27.8 |
| C=CC(=O)N1CCN(c2nc(OC[C@@H]3CCCN3C)nc3c(F)c(-c4nc(N)cc(C)c4C(F)(F)F)c(Cl)cc23)[C@@H](C)C1 | 1.73 | 3.51 | 3.36 | 13.6 | 1.21 | 2.75 |  | 1.34 |  |  | 2.62 | 6.42 | 1.95 | 3.71 | 2.65 | 7.2 | 1.13 | 2.51 | 2.61 | 9.8 |
| Cc1nc2sc(C(=O)Nc3cccc4c3OCCO4)c(N)c2cc1C(C)O (stereo not drawn) | 2.96 | 13.8 | 6.25 | > 100 | 2.5 | > 100 | 6.67 | > 100 | 2.97 | > 100 | 5.75 | > 100 | 3.34 | > 100 | 8.31 | > 100 | 2.11 | > 100 | 2.62 | > 100 |
| O=C(N/N=C/c1coc2ccc(Cl)cc2c1=O)c1cc(O)c(O)c(O)c1 | 23.6 | 62.7 | 31.4 | > 100 | 38.4 | > 100 | 16.2 | 48.1 | 19.8 | 40.1 | > 100 | > 100 | 25.8 | 97.4 | 30.7 | > 100 | 75.7 | > 100 | 63.8 | > 100 |
| C[C@H]1CCC/C=C/[C@@H]2C[C@H](O)C[C@H]2[C@H](O)C(O)C(O)C(=O)O1 (stereo partly drawn) | 0.677 | > 100 | 4.54 | > 100 | 2.26 | 4.52 | 2.23 | > 100 | 1.07 |  | 3.75 | > 100 | 3.26 | > 100 | 6.69 | > 100 | 2.64 | > 20.1 | 1.24 | 17.9 |
| O=C1c2c[n+](Cc3ccccc3)ccc2-c2nc3ccccc3c3ccnc1c23 | 0.545 | 1.17 | 0.323 | 1.99 | 0.518 | 1.65 | 0.158 | 1.26 | 0.594 | 1.78 | 0.568 | 2.56 | 0.45 | 3.71 | 0.417 | 0.891 | 0.163 | 0.89 | 0.971 | 3.46 |
| O=NN(CC(=O)NNc1ccccc1)CC(=O)NNc1ccccc1 | 2.84 | 10.1 | > 23.1 | > 100 | 1.27 | > 100 | > 100 | > 100 | 0.479 | 7.9 | > 100 | > 100 | 4.21 | > 100 | > 100 | > 100 | 8.13 | > 100 | > 100 | > 100 |
| O=C1/C(=C/c2ccccc2)CN(C(=O)/C=C/c2ccccc2)C/C1=C\c1ccccc1 |  | 24.8 |  | 37.2 |  | 27.7 |  | 32.6 |  | 16.2 |  | 57.9 |  | 5.28 |  | 40.9 |  | 3.83 |  | 11.8 |
| Cc1ncc2c(n1)CCC1=C2OS(=O)(=O)CC1N(C)C (stereo not drawn) |  | > 100 |  | > 100 |  | > 100 |  | > 100 |  | > 100 |  | > 100 |  | > 100 |  | > 100 |  | > 100 |  | > 100 |
